According to patent US20240002375A1, “2-(INDAZOL-5-YL)-6-(PIPERIDIN-4-YL)-1,7-NAPHTHYRIDINE DERIVATIVES AND RELATED COMPOUNDS AS MODULATORS FOR SPLICING NUCLEIC ACIDS AND FOR THE TRE” (REMIX THERAPEUTICS INC., priority 2020, published 2024):
Like-named read-outs stand apart in the source and are kept apart here.

Key:
Type in all cases: cell-based
HTT mRNA = experiment: Splicing assay (RT-qPCR) of HTT mRNA alternative junction (AJ) and canonical junction (CJ)
Procedure, shortened: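 HTT splice switching read as formation of an alternative-exon junction (AJ) versus the canonical junction (CJ) by one-step RT-qPCR on cell lysates, with GAPDH/GUSB housekeeping normalisation in K562 and PPIA in A673. Compounds: 11-point 3-fold series up to 10 uM, ≤0.25% DMSO, 24 h at 37 °C.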

HTT CJ mRNA = experiment: Gene panel canonical junction qPCR splicing assay, HTT; details: Table 4, read-out: HTT IC50 (decrease in CJ mRNA levels)
Procedure, shortened: (§1)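 A673 or K562 cells treated with compound; canonical-junction mRNA measured by RT-qPCR with junction-spanning primer/probe sets, normalized to GAPDH, GUSB or PPIA and DMSO (2^−ΔΔCt). IC50 for CJ decrease from 4-parameter logistic fit of percentage response.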

SMN2 CJ mRNA = experiment: Gene panel canonical junction qPCR splicing assay, SMN2; details: Table 4, read-out: SMN2 IC50 (decrease in CJ mRNA levels)
Procedure, shortened: as §1

Target C CJ mRNA = experiment: Gene panel canonical junction qPCR splicing assay, Target C; details: Table 4, read-out: Target C IC50 (decrease in CJ mRNA levels)
Procedure, shortened: as §1

[1] = decrease in CJ mRNA, A673 or K562 cells, 24 hours, read-out: HTT CJ IC50
[2] = increase in AJ mRNA, A673 or K562 cells, 24 hours, read-out: HTT AJ AC50

Row | SMILES | IC50 (HTT mRNA; [1]) | AC50 (HTT mRNA; [2]) | IC50 (HTT CJ mRNA) | IC50 (SMN2 CJ mRNA) | IC50 (Target C CJ mRNA) | AC50 (HTT mRNA; 24 h, read-out: HTT AJ AC50 (nM)) | IC50 (HTT mRNA; 24 h, read-out: HTT CJ IC50 (nM))
1 | COc1cc2ccncc2cc1-c1ccc2nc(N3CCC(NC(C)(C)C)C3)ccc2n1 (stereo not shown) [Compound 161, N-tert-butyl-1-[6-(6-methoxyisoquinolin-7-yl)-1,5-naphthyridin-2-yl]pyrrolidin-3-amine] | > 10000 nM | > 10000 nM | > 10000 nM | 1000 to 10000 nM | > 10000 nM | – | –
2 | C[C@@H]1CC(c2ccc3nc(-c4cc5cn(C)nc5cc4O)ccc3n2)C[C@H](C)N1 (stereo partly drawn) [Compound 137, 5-[6-[(2R,6S)-2,6-dimethylpiperidin-4-yl]-1,5-naphthyridin-2-yl]-2-methylindazol-6-ol] | 100 to 1000 nM | 100 to 1000 nM | 100 to 1000 nM | < 100 nM | 1000 to 10000 nM | – | –
3 | Cc1nc2c(F)c(O)c(-c3ccc4nc(N5CC[C@@H](NC6CC6)C5)ccc4n3)cc2o1 (single isomer, unassigned) [Compound 253, 6-{6-[3-(cyclopropylamino)pyrrolidin-1-yl]-1,5-naphthyridin-2-yl}-4-fluoro-2-methyl-1,3-benzoxazol-5-ol] | < 100 nM | < 100 nM | < 100 nM | < 100 nM | < 100 nM | – | –
4 | Cn1cc2cc(-c3ccc4nc(N5CC[C@@H](NC6CCC6)C5)ccc4n3)c(O)cc2n1 [Compound 157] | < 100 nM | < 100 nM | < 100 nM | < 100 nM | 100 to 1000 nM | – | –
5 | Cc1c(O)c(-c2ccc3nc(N4CCC(NC5(C)CC5)C4)ccc3n2)cc2cn(C)nc12 (racemic) [Compound 224, 2,7-dimethyl-5-(6-{3-[(1-methylcyclopropyl)amino]pyrrolidin-1-yl}-1,5-naphthyridin-2-yl) indazol-6-ol] | < 100 nM | < 100 nM | < 100 nM | < 100 nM | < 100 nM | – | –
6 | Cc1cc(=O)c2cc(O)c(-c3ccc4nc(N5CCC(NC(C)(C)C)C5)ccc4n3)cc2o1 (stereo not shown) [Compound 174] | > 10000 nM | > 10000 nM | > 10000 nM | > 10000 nM | > 10000 nM | – | –
7 | Cn1cc2cc(-c3ccc4nc(N5CC6(CNC6)C5)ccc4n3)c(O)cc2n1 [Compound 124, 5-(6-[2,6-diazaspiro[3.3]heptan-2-yl]-1,5-naphthyridin-2-yl)-2-methylindazol-6-ol] | < 100 nM | 100 to 1000 nM | < 100 nM | < 100 nM | 100 to 1000 nM | – | –
8 | CN1CCC(N(C)c2ccc3nc(-c4cc5cn(C)nc5cc4O)ccc3n2)CC1 [Compound 126] | 100 to 1000 nM | 100 to 1000 nM | 100 to 1000 nM | < 100 nM | < 100 nM | – | –
9 | CCNC1CCN(c2ccc3nc(-c4cc5cn(C)nc5cc4O)ccc3n2)CC1 [Compound 131, 5-[6-[4-(ethylamino)piperidin-1-yl]-1,5-naphthyridin-2-yl]-2-methylindazol-6-ol] | 1000 to 10000 nM | > 10000 nM | 1000 to 10000 nM | < 100 nM | > 10000 nM | – | –
10 | Cn1cc2cc(-c3ccc4nc(N5CC[C@@H](NC6(C)CC6)C5)ccc4n3)c(O)c(F)c2n1 (single isomer, unassigned) [Compound 223] | < 100 nM | < 100 nM | < 100 nM | < 100 nM | < 100 nM | – | –
11 | Cn1cc2cc(-c3ccc4nc(C5CCNCC5)ccc4n3)c(F)cc2n1 [Compound 193, 2-(6-fluoro-2-methylindazol-5-yl)-6-(piperidin-4-yl)-1,5-naphthyridine] | 1000 to 10000 nM | 1000 to 10000 nM | 1000 to 10000 nM | 1000 to 10000 nM | 1000 to 10000 nM | – | –
12 | CC(C)N[C@H]1CCN(c2ccc3nc(-c4cc5cn(C)nc5cc4O)ccc3n2)C1 [Compound 171] | – | – | < 100 nM | < 100 nM | 100 to 1000 nM | < 100 nM | < 100 nM
13 | CC(C)N[C@@H]1CCN(c2ccc3nc(-c4cc5cn(C)nc5cc4O)ccc3n2)C1 [Compound 173] | < 100 nM | < 100 nM | < 100 nM | < 100 nM | < 100 nM | – | –
14 | COc1cc2nn(C)cc2cc1-c1ccc2cc(C3CCNCC3)c(F)cc2n1 [Compound 145, 7-fluoro-2-(6-methoxy-2-methylindazol-5-yl)-6-(piperidin-4-yl)quinoline] | > 10000 nM | > 10000 nM | > 10000 nM | > 10000 nM | > 10000 nM | – | –
15 | CN[C@@H]1CCN(c2ccc3nc(-c4cc5cn(C)nc5cc4O)ccc3n2)C1 [Compound 172] | < 100 nM | 100 to 1000 nM | < 100 nM | < 100 nM | 100 to 1000 nM | – | –
16 | Cc1c(O)c(-c2ccc3nc(C4CCNCC4)ccc3n2)cc2cn(C)nc12 [Compound 101, 2,7-dimethyl-5-[6-(piperidin-4-yl)-1,5-naphthyridin-2-yl]indazol-6-ol] | < 100 nM | < 100 nM | < 100 nM | < 100 nM | < 100 nM | – | –
17 | CC1CN(c2ccc3nc(-c4cc5cn(C)nc5cc4O)ccc3n2)CCN1C (stereo not shown) [Compound 118, 5-[6-(3,4-dimethylpiperazin-1-yl)-1,5-naphthyridin-2-yl]-2-methylindazol-6-ol] | 1000 to 10000 nM | 1000 to 10000 nM | 1000 to 10000 nM | < 100 nM | 1000 to 10000 nM | – | –
18 | Cn1cc2cc(-c3ccc4nc(N5CC[C@@H](NC6CC6)C5)ccc4n3)c(O)cc2n1 [Compound 198] | < 100 nM | < 100 nM | < 100 nM | < 100 nM | 100 to 1000 nM | – | –
19 | CC1CN(c2ccc3nc(-c4cc5cn(C)nc5cc4O)ccc3n2)CCN1 (stereo not shown) [Compound 117, 2-methyl-5-[6-(3-methylpiperazin-1-yl)-1,5-naphthyridin-2-yl]indazol-6-ol] | 1000 to 10000 nM | 1000 to 10000 nM | 1000 to 10000 nM | < 100 nM | 1000 to 10000 nM | – | –
20 | Cn1cc2cc(-c3ccc4nc(C5CCNCC5)ccc4n3)ncc2n1 [Compound 200] | 1000 to 10000 nM | 1000 to 10000 nM | 1000 to 10000 nM | 1000 to 10000 nM | 1000 to 10000 nM | – | –
21 | Cn1cc2cc(-c3cc4ccc(N5CCC(NC(C)(C)C)C5)nc4cn3)c(O)cc2n1 (stereo not shown) [Compound 218, 5-{2-[3-(tert-butylamino)pyrrolidin-1-yl]-1,7-naphthyridin-6-yl}-2-methylindazol-6-ol] | > 10000 nM | > 10000 nM | > 10000 nM | 100 to 1000 nM | > 10000 nM | – | –
22 | Cn1cc2cc(O)c(-c3ccc4nc(C5CCNCC5)ccc4n3)cc2n1 [Compound 146, 2-methyl-6-[6-(piperidin-4-yl)-1,5-naphthyridin-2-yl]indazol-5-ol] | 1000 to 10000 nM | 1000 to 10000 nM | 1000 to 10000 nM | 100 to 1000 nM | 1000 to 10000 nM | – | –
23 | Cc1nc2cc(O)c(-c3ccc4nc(N5CCC(NC6CCC6)C5)ccc4n3)cc2o1 (single isomer, unassigned) [Compound 229, 6-{6-[3-(cyclobutylamino)pyrrolidin-1-yl]-1,5-naphthyridin-2-yl}-2-methyl-1,3-benzoxazol-5-ol] | < 100 nM | < 100 nM | < 100 nM | < 100 nM | 100 to 1000 nM | – | –
24 | Cn1cc2cc(-c3ccc4cc(C5CCNCC5)c(F)cc4n3)c(O)cc2n1 [Compound 144, 5-[7-fluoro-6-(piperidin-4-yl)quinolin-2-yl]-2-methylindazol-6-01] | > 10000 nM | > 10000 nM | > 10000 nM | > 10000 nM | > 10000 nM | – | –
25 | Cc1cn2nc(-c3ccc4nc(N5CCC(NC(C)(C)C)C5)ccc4n3)c(O)c2c(C)n1 (stereo not shown) [Compound 203, 2-{6-[3-(tert-butylamino)pyrrolidin-1-yl]-1,5-naphthyridin-2-yl}-4,6-dimethylpyrazolo[1,5-a]pyrazin-3-ol] | < 100 nM | < 100 nM | < 100 nM | < 100 nM | < 100 nM | – | –
26 | Cn1cc2cc(-c3ccc4nc(N5CC[C@H](NC6CC6)C5)ccc4n3)c(O)cc2n1 [Compound 197, 5-{6-[(35)-3-(cyclopropylamino)pyrrolidin-1-yl]-1,5-naphthyridin-2-yl}-2-methylindazol-6-ol] | < 100 nM | < 100 nM | < 100 nM | < 100 nM | 100 to 1000 nM | – | –
27 | Cn1cc2cc(-c3ccc4nc(N5CC[C@H](N[C@H]6C[C@H](F)C6)C5)ccc4n3)c(O)cc2n1 [Compound 247] | < 100 nM | 100 to 1000 nM | < 100 nM | < 100 nM | 100 to 1000 nM | – | –
28 | Cn1cc2c(O)c(-c3ccc4nc(C5CCNCC5)ccc4n3)ccc2n1 [Compound 105, 2-methyl-5-[6-(piperidin-4-yl)-1,5-naphthyridin-2-yl]indazol-4-ol] | > 10000 nM | > 10000 nM | > 10000 nM | 1000 to 10000 nM | 1000 to 10000 nM | – | –
29 | Cc1nc2cc(O)c(-c3ccc4nc(N5CC[C@H](NC(C)C)C5)ccc4n3)cc2o1 (single isomer, unassigned) [Compound 233, 6-{6-[3-(isopropylamino)pyrrolidin-1-yl]-1,5-naphthyridin-2-yl}-2-methyl-1,3-benzoxazol-5-ol] | < 100 nM | < 100 nM | < 100 nM | < 100 nM | < 100 nM | – | –
